Where “and” joins values, the source holds several entries; their conditions need not be identical. Equal entries are not always repeated.
Assays:
[1] = Cytotoxicity, cell viability assay in normal cells; format: cell-based; details: human, replicates
Description: Human peripheral blood mononuclear cells (PBMCs), normal T-cells and B-cells were provided by the University of Pennsylvania Human Immunology Core (HIC), and Patient-derived xenografts (PDXs) were obtained from Fox Chase Cancer Center (FCCC). These samples were from different unidentified and healthy donors with written, informed consent. All the procedures were approved by the Institutional Review Board (IRB) and conducted according to the declarations of Helsinki protocols.
(§1) 5000 cells as indicated were cultured in 96-well plate with 100 μl of media. […] After treatment, the cells were incubated with 100 μl buffer for 10 min at room temperature following the instructions of CellTiter-Glo kit (Promega, Madison, WI). Luminescence was detected using a multi-mode reader Cytation 5 (BioTek, Winooski, VT). […] Two independent experiments done in duplicates were performed.

Raji cells [2] = test: Western blot of PI3K/AKT signaling proteins; format: cell-based, human; details: Raji, 0, 50 nM, 100 nM; 0, 12 h, 24 h
Experimental: (§2) Western blot analyses were performed as previously described. Briefly, total cell lysates were separated by SDS-PAGE gel and transferred to nitrocellulose membrane. The membranes were blocked with 5% non-fat milk, probed with specific antibodies, and visualized using the Odyssey scanner (LiCor Inc., Lincoln, NE).

MOLM14 cells = test: Cell viability assay (CellTiter-Glo luminescence); format: cell-based; details: Homo sapiens
Experimental: as §1

[3] = Cytotoxicity, cell viability assay in normal cells; format: cell-based, human; details: human, relative cell viability (Fig 6a), replicates
MOLM14 xenografts [4] = test: In vivo tumorigenic assay using xenografts, tumor size; design: species or system NOD/SCID mice; key to tumor size (Fig 5d&5e), individual mice: tumor volume in mm^3, calculated as (a × b × b)/2; details: for tumor size (Fig 5d&5e), individual mice: MOLM14 xenograft
Experimental: (§3) Six-week-old male NOD.CB17-Prkdc^scid/J (NOD/SCID) mice (Jackson Labs, Bar Harbor, ME, USA) were used as the human-in-mouse xeno-transplantation model. MOLM14 cells (1 × 10^7 cells) were injected into the subcutaneous space on the left flank of the mice. […] Body weight and tumor size were monitored before every injection. After treatment for 2 weeks, the mice were euthanized by CO2 inhalation and the tumors were carefully excised. The tumor volume (mm^3) was measured and calculated using the formula (a × b × b)/2 (a, the largest diameter of two measurements; b, the smallest diameter of two measurements).

[5] = test system: hematologic malignancies derived cell lines; test: Cell viability assay, panel of hematologic malignancy derived cell lines; format: cell-based, human; details: 100 nM, 72 h, lymphoma, leukemia and multiple myeloma cell lines (13 cell lines for analogs)
Experimental: 5000 cells as indicated were cultured in 96-well plate with 100 μl of media. On the next day, Brusatol or associated analogs were added once to the cells without media change. After treatment, the cells were incubated with 100 μl buffer for 10 min at room temperature following the instructions of CellTiter-Glo kit (Promega, Madison, WI). Luminescence was detected using a multi-mode reader Cytation 5 (BioTek, Winooski, VT). […] Two independent experiments done in duplicates were performed.

MOLM14 xenografts [6] = test: mRNA expression in xenograft tumors in vivo; design: species or system NOD/SCID mice; details: xenograft tumors of treated mice
Experimental: Real-time PCR experiments were performed as previously described. The experiments were performed in triplicate.
as §3

[7] = In vivo toxicity test, survival rate; design: species or system NOD/SCID mice
Experimental: The survival rate was recorded to monitor the tolerance of the compounds in these mice.

SU-DHL-4 cells = test: Cell viability assay (CellTiter-Glo luminescence); format: cell-based, human; details: Homo sapiens, SU-DHL-4, 144 h
Experimental: as §1

Raji cells [8] = test: Cell viability assay (CellTiter-Glo luminescence); format: cell-based, human; details: Homo sapiens
Experimental: as §1

[9] = molecular target: T1, PIK3C2B encoded protein (PI3KC2β) (Homo sapiens, UniProt O00750); test: Streptavidin pull-down and mass spectrometry; format: binding; details: Raji lysates, gene PIK3C2B
T1 construct: endogenous in cells; host or cells: Raji cells (lysate)
Experimental: (§4) Two hundred million Raji cells were harvested and lysed with RIPA buffer [1% Nonidet P-40 (NP-40), 10 mM Tris (pH8.0), 2 mM EDTA, 150 mM NaCl, supplemented with protease inhibitors (1 mM phenylmethylsulphonyl fluoride (PMSF), 1 μg/ml each Aprotinin, Pepstatin, and Leupeptin)]. Twenty milligram lysates were combined with magnetic Streptavidin beads as well as biotin-conjugated compounds 51046, 51048, or 51052, respectively. The complexes were incubated overnight with rotation at 4 °C. The immunoprecipitated samples were washed with RIPA three times and resolved on an SDS-PAGE gel.
(§5) The following Mass Spectrometry proteomics resources and services are provided by the Quantitative Proteomics Resource Core at School of Medicine at the University of Pennsylvania. Briefly, the peptides were extracted from the gel band and analyzed with an Orbitrap Fusion (Thermo Fisher Scientific, San Jose, CA, USA) attached to an EasyLC 1000 system (Thermo Fisher Scientific, San Jose, CA, USA) at 400 nL/min. The raw MS data were processed using MaxQuant (Version 1.5.3.30)[61], and searched with the UniProt human database. Then the target-decoy approach was used to filter the search results, in which the false discovery rate was less than 1% at the peptide and protein level.

[10] = molecular target: T2, JUP encoded protein (junction plakoglobin) (Homo sapiens, UniProt P14923); test: Streptavidin pull-down and mass spectrometry; format: binding; details: Raji lysates, gene JUP
T2 construct: endogenous in cells; host or cells: Raji cells (lysate)
Experimental: as §4, §5

GAPDH = molecular target: T3, GAPDH (Homo sapiens, UniProt P04406); test: Competitive binding pull-down assay in SU-DHL-4 cell lysates, western blot; details: SU-DHL-4 lysates
T3 construct: endogenous in cells; host or cells: SU-DHL-4 cells (lysate)
Experimental: (§6) Thirty microgram of purified GST-tagged proteins were pre-cleared with Dynabeads M-280 Streptavidin (Invitrogen, Carlsbad, CA, USA). […] The complexes were harvested and washed with PBS. The collected beads were mixed with SDS loading buffer for further analysis.
as §2

PI3Kγ = molecular target: T4, PI3Kγ (Homo sapiens, UniProt P48736); test: as above; details: SU-DHL-4 lysates, biotin derivative alone
T4 construct: endogenous in cells; host or cells: SU-DHL-4 cells (lysate)
Experimental: as §6, §2

AKT1 = molecular target: T5, AKT1 (Homo sapiens, UniProt P31749); test: as above; details: SU-DHL-4 lysates
T5 construct: endogenous in cells; host or cells: SU-DHL-4 cells (lysate)
Experimental: as §6, §2

GST-tagged PI3Kγ protein = molecular target: T6, GST-tagged PI3Kγ protein (Homo sapiens, UniProt P48736); test: In vitro pull-down assay with purified protein; format: binding; details: 0, 300 μM, or 500 μM compound, Dynabeads M-280 Streptavidin
T6 construct: made in house; host or cells: E. coli BL21 (DE3)
Description: PIK3CG cDNA (Plasmid #20574) was purchased from Addgene and cloned into a pGEX-6P-1 vector (GE Healthcare, Madison, WI, USA) with SalI and NotI (NEB, USA). This GST-tagged PIK3CG plasmid was transformed into E. coli BL21 (DE3)-competent cells (Life Technologies, Carlsbad, CA, USA) for in vitro expression according to Molecular Cloning (Third Edition).
as §6

[11] = molecular target: T7, TP73 encoded protein (P73) (Homo sapiens, UniProt O15350); test: Streptavidin pull-down and mass spectrometry; format: binding; details: Raji lysates, gene TP73
T7 construct: endogenous in cells; host or cells: Raji cells (lysate)
Experimental: as §4, §5

[12] = molecular target: T8, PIK3CG encoded protein (PI3Kγ) (Homo sapiens, UniProt P48736); test: Streptavidin pull-down and mass spectrometry; format: binding; details: Raji lysates, gene PIK3CG
T8 construct: endogenous in cells; host or cells: Raji cells (lysate)
Experimental: as §4, §5

[13] = relative cell viability (Fig 6b)
[14] = relative cell viability (Fig 6c)

T3 sequence (P04406 whole entry): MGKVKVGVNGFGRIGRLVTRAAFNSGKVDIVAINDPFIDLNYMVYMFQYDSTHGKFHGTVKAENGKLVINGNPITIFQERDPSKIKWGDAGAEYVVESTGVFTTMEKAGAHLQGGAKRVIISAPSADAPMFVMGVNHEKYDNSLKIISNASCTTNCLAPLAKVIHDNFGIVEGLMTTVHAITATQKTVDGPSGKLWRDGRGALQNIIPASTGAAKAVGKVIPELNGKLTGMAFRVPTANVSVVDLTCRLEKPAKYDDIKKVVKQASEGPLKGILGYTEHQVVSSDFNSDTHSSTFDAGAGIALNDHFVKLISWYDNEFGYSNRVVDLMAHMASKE
T8 sequence (P48736 whole entry): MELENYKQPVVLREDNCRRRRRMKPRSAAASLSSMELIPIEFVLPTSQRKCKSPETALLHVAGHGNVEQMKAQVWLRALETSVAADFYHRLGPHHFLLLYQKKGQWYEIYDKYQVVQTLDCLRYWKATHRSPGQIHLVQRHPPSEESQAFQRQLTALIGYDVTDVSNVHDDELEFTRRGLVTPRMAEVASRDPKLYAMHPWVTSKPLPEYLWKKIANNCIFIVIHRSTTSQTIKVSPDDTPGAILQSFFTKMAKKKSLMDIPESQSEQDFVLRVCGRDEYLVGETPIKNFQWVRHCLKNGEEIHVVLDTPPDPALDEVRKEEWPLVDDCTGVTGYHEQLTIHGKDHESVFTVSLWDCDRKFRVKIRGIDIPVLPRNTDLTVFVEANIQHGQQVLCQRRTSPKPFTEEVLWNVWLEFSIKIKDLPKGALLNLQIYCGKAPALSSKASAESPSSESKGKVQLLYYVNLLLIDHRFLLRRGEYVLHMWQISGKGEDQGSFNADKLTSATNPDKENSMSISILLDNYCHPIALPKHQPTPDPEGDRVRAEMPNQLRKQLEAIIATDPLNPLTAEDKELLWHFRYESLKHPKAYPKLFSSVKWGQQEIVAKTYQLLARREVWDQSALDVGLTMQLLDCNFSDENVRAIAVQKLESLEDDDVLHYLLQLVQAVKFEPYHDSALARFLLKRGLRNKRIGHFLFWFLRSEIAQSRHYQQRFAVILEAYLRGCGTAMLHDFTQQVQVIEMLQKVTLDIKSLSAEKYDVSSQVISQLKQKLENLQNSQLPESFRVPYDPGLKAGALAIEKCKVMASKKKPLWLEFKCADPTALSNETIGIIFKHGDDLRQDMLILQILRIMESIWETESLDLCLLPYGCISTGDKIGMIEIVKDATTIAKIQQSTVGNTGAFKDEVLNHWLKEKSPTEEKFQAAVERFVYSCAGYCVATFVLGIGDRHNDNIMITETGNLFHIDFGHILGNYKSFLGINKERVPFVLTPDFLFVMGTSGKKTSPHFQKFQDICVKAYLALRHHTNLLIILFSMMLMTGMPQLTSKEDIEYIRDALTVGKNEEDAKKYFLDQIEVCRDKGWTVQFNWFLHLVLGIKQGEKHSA
T4 sequence (P48736 whole entry): as above
T6 sequence (P48736 whole entry): as above
T7 sequence (O15350 whole entry): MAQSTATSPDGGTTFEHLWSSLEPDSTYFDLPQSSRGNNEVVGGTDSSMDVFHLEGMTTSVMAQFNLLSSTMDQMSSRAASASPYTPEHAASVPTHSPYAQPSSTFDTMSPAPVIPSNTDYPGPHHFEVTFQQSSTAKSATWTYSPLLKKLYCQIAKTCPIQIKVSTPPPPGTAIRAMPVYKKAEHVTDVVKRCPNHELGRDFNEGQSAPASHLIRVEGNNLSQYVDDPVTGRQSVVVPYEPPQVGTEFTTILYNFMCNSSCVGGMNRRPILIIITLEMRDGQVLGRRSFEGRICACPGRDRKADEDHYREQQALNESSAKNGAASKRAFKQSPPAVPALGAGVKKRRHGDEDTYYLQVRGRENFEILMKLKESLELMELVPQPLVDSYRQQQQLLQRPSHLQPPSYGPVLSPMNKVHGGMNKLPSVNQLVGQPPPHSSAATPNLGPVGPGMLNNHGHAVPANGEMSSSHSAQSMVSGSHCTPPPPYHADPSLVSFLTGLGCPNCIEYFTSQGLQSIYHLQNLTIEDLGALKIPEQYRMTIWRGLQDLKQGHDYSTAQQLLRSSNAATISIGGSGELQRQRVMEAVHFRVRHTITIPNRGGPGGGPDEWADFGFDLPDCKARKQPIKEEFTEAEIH
T1 sequence (O00750 whole entry): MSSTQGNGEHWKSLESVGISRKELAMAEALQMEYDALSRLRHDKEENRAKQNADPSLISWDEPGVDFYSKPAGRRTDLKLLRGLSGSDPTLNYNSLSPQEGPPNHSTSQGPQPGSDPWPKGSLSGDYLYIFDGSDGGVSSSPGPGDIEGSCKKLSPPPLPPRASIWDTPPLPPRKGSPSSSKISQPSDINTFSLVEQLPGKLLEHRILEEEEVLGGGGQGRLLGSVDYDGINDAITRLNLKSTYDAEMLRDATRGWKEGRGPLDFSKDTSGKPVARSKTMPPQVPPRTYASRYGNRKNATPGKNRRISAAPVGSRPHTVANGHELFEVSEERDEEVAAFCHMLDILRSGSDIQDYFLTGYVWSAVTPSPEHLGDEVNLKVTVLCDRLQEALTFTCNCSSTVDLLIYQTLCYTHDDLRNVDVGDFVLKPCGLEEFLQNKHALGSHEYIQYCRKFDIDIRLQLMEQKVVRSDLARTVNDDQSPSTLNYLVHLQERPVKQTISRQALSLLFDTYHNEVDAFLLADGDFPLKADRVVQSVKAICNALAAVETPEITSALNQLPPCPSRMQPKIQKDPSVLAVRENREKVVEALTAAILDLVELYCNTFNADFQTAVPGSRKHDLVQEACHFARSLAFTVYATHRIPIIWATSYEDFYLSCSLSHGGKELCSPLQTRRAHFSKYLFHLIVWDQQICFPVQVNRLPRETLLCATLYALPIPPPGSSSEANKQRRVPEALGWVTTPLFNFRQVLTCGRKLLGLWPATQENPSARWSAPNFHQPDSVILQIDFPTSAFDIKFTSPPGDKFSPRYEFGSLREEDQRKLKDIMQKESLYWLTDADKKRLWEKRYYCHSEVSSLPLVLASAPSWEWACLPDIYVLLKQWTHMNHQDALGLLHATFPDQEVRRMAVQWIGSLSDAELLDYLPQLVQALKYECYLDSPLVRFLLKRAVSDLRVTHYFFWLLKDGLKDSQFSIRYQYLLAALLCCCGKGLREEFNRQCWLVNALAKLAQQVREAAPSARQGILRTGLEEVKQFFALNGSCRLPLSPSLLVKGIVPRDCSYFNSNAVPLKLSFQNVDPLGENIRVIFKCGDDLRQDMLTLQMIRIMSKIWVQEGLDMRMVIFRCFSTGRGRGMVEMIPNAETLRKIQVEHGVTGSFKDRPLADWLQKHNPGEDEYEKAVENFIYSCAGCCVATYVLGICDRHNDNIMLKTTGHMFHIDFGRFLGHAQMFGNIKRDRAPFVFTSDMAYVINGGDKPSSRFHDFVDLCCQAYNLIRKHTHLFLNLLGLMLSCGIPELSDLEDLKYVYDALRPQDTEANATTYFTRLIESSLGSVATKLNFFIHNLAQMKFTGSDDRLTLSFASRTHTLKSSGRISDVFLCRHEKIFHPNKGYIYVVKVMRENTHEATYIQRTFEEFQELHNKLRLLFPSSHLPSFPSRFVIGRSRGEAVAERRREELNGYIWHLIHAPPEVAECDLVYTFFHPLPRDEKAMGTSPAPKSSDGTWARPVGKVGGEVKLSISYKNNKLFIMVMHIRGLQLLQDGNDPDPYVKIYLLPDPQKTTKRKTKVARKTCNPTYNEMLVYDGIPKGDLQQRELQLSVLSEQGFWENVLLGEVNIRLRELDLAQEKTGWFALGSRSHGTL
T5 sequence (P31749 whole entry): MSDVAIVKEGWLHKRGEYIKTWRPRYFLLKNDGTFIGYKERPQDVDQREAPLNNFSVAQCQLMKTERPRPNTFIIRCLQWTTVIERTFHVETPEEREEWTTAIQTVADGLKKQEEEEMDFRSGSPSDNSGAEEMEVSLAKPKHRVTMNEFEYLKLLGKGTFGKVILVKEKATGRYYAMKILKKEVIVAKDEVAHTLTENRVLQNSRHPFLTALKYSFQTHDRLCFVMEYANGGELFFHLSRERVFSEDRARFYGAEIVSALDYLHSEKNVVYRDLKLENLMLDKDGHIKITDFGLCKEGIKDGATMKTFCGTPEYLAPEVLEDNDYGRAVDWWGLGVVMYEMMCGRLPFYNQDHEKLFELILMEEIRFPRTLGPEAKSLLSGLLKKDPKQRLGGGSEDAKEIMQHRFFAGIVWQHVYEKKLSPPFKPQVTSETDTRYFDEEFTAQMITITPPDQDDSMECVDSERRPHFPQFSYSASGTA
T2 sequence (P14923 whole entry): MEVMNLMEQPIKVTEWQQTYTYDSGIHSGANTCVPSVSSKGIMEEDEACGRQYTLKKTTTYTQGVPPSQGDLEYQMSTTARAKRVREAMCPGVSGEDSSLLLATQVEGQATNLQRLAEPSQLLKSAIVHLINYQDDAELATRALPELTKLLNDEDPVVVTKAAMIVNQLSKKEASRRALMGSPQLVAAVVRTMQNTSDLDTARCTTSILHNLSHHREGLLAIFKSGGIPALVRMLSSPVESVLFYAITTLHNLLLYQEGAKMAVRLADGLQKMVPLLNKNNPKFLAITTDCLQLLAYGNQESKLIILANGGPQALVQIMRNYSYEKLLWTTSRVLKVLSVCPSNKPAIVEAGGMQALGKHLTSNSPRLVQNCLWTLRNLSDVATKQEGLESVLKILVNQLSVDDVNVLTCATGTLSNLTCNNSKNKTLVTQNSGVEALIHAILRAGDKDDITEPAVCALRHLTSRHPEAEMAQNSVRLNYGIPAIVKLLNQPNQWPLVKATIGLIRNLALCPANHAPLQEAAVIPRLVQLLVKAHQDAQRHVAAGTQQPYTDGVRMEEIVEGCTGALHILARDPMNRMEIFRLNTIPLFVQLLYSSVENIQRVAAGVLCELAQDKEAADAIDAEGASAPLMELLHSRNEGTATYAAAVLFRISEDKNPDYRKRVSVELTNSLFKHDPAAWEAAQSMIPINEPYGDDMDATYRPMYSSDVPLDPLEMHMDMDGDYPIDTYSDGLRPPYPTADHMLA

COC(=O)C12OCC34C(CC5C(C)=C(OC(=O)CC(C)N)C(=O)CC5(C)C3C(O)C1O)OC(=O)C(OC(=O)C=C(C)C)C24 (centres unmarked) [#26]
viability at 0.000244141 μM [1, 13]: 96.2%
viability at 0.00390625 μM [1, 13]: 86%
viability at 0.015625 μM [1, 13]: 81.6%
viability at 0.0625 μM [1, 13]: 74.5%
viability at 1 μM [1, 13]: 82.6%
viability at 0.000244141 μM [1, 14]: 111%
viability at 0.00390625 μM [1, 14]: 112%
viability at 0.015625 μM [1, 14]: 115%
viability at 1 μM [1, 14]: 93.8%
suppression of AKT1, GSK3, and mTOR levels (Raji cells [2]): largely similar to Brusatol
viability at 0.0390625 µM (MOLM14 cells; MOLM-14, read-out: relative cell viability (Fig 6e), replicates, MOLM14, Con. 0.0390625 μM, fraction of 0 μM control): 12.5%
viability at 0.15625 µM (MOLM14 cells; MOLM-14, read-out: relative cell viability (Fig 6e), replicates, MOLM14, Con. 0.15625 μM, fraction of 0 μM control): 7.37%
viability at 0.625 µM (MOLM14 cells; MOLM-14, read-out: relative cell viability (Fig 6e), replicates, MOLM14, Con. 0.625 μM, fraction of 0 μM control): 5.55%
viability at 10 µM (MOLM14 cells; MOLM-14, read-out: relative cell viability (Fig 6e), replicates, MOLM14, Con. 10 μM, fraction of 0 μM control): 4.05%
viability at 0.000244141 μM [3]: 103%
viability at 0.00390625 μM [3]: 85%
viability at 0.015625 μM [3]: 83.1%
viability at 0.0625 μM [3]: 80.7%
viability at 1 μM [3]: 61.8%
tumor size, inhibitory response (MOLM14 xenografts [4]; 2 mg/kg intraperitoneally three times per week, 2 weeks, vs PBS control): strong and rapid inhibitory response
tumor size (Fig 5d&5e), individual mice (MOLM14 xenografts [4]; 0d): 50.8503 and 81.4689 and 79.571 and 83.4481 and 51.3256 and 101.436
tumor size (Fig 5d&5e), individual mice (MOLM14 xenografts [4]; 2d): 106.443 and 103.871 and 87.5139 and 68.1449 and 136.175 and 126.294
tumor size (Fig 5d&5e), individual mice (MOLM14 xenografts [4]; 4d): 67.7106 and 172.977 and 64.3385 and 73.9417 and 166.255 and 100.157
tumor size (Fig 5d&5e), individual mice (MOLM14 xenografts [4]; 6d): 174.013 and 301.003 and 181.944 and 99.2269 and 96.1716 and 48.5716
tumor size (Fig 5d&5e), individual mice (MOLM14 xenografts [4]; 8d): 185.825 and 124.577 and 101.125 and 181.307 and 468.229 and 312.088
tumor size (Fig 5d&5e), individual mice (MOLM14 xenografts [4]; 10d): 259.199 and 230.595 and 161.819 and 478.339 and 646.864 and 395.944
tumor size (Fig 5d&5e), individual mice (MOLM14 xenografts [4]; 12d): 359.944 and 415.708 and 136.428 and 853.399 and 887.802 and 629.337
inhibition of cell viability in panel of cell lines [5]: significantly inhibit
PIK3CG and GSK3B mRNA expression in vivo (MOLM14 xenografts [6]): inhibited
toxicity in vivo (survival) ([7]; 10 mg/kg intraperitoneally every other day, monitored 24 days, 4 mice per group): did not show any obvious signs of toxicity
survival event status per mouse (Fig 6i; 1 = event/death, 0 = censored) ([7]; 10mg/kg, Days Post-treatment 24): 0
viability at 0.00244141 µM (SU-DHL-4 cells; read-out: relative cell viability (Fig 6d), replicates, SU-DHL-4, Con. 0.00244141 μM, fraction of 0 μM control): 125%
viability at 0.0390625 µM (SU-DHL-4 cells; read-out: relative cell viability (Fig 6d), replicates, SU-DHL-4, Con. 0.0390625 μM, fraction of 0 μM control): 36.6%
viability at 0.15625 µM (SU-DHL-4 cells; read-out: relative cell viability (Fig 6d), replicates, SU-DHL-4, Con. 0.15625 μM, fraction of 0 μM control): 18.6%
viability at 0.625 µM (SU-DHL-4 cells; read-out: relative cell viability (Fig 6d), replicates, SU-DHL-4, Con. 0.625 μM, fraction of 0 μM control): 9.14%
viability at 10 µM (SU-DHL-4 cells; read-out: relative cell viability (Fig 6d), replicates, SU-DHL-4, Con. 10 μM, fraction of 0 μM control): 6.62%
IC50 (Raji cells [8]; analogs, 72 h, Fig. 5c, read-out: IC50): 37.6 nM
viability at 0.00244141 µM (Raji cells [8]; read-out: relative cell viability (Fig 6f), replicates, Raji, Con. 0.00244141 μM, fraction of 0 μM control): 105%
viability at 0.0390625 µM (Raji cells [8]; read-out: relative cell viability (Fig 6f), replicates, Raji, Con. 0.0390625 μM, fraction of 0 μM control): 35%
viability at 0.15625 µM (Raji cells [8]; read-out: relative cell viability (Fig 6f), replicates, Raji, Con. 0.15625 μM, fraction of 0 μM control): 16.4%
viability at 0.625 µM (Raji cells [8]; read-out: relative cell viability (Fig 6f), replicates, Raji, Con. 0.625 μM, fraction of 0 μM control): 7.06%
viability at 10 µM (Raji cells [8]; read-out: relative cell viability (Fig 6f), replicates, Raji, Con. 10 μM, fraction of 0 μM control): 4.98%

COC(=O)C12OCC34C(CC5C(C)=C(OC(=O)CCCCC6SCC7NC(=O)NC76)C(=O)CC5(C)C3C(O)C1O)OC(=O)C(OC(=O)C=C(C)C)C24 (centres unmarked) [compound 51048]
Score (sum of the ion scores of all peptides identified) [9]: 5.9631
Score (sum of the ion scores of all peptides identified) [10]: 11.324
GAPDH pulled down (GAPDH): little or no detectable levels
binding activity with PI3Kγ (PI3Kγ): relatively strong
AKT1 pulled down (AKT1): little or no detectable levels

COC(=O)C12OCC34C(CC5C(C)=C(OC(=O)CCCCCNC(=O)CCCCC6SCC7NC(=O)NC76)C(=O)CC5(C)C3C(O)C1O)OC(=O)C(OC(=O)C=C(C)C)C24 (centres unmarked) [compound 51052]
association with GST-tagged PI3Kγ (GST-tagged PI3Kγ protein): formed a complex
Score (sum of the ion scores of all peptides identified) [11]: 6.0132
Score (sum of the ion scores of all peptides identified) [12]: 6.132
